Assay [1] deals with Poly [ADP-ribose] polymerase 1 (Homo sapiens, UniProt P09874). Briefly: Inhibition of human recombinant Poly (ADP-ribose) polymerase 1.
The nature of assay [2]: Effective concentration was determined from in vitro cellular peroxide toxicity assay. Format: functional.

A word on the IC50: it is the concentration at which inhibition is half-maximal. The term EC50 denotes the concentration at which the effect is half-maximal. A low value points to an effect from little substance.

Structures are written as SMILES.

Sequence of Poly [ADP-ribose] polymerase 1 (P09874 whole entry): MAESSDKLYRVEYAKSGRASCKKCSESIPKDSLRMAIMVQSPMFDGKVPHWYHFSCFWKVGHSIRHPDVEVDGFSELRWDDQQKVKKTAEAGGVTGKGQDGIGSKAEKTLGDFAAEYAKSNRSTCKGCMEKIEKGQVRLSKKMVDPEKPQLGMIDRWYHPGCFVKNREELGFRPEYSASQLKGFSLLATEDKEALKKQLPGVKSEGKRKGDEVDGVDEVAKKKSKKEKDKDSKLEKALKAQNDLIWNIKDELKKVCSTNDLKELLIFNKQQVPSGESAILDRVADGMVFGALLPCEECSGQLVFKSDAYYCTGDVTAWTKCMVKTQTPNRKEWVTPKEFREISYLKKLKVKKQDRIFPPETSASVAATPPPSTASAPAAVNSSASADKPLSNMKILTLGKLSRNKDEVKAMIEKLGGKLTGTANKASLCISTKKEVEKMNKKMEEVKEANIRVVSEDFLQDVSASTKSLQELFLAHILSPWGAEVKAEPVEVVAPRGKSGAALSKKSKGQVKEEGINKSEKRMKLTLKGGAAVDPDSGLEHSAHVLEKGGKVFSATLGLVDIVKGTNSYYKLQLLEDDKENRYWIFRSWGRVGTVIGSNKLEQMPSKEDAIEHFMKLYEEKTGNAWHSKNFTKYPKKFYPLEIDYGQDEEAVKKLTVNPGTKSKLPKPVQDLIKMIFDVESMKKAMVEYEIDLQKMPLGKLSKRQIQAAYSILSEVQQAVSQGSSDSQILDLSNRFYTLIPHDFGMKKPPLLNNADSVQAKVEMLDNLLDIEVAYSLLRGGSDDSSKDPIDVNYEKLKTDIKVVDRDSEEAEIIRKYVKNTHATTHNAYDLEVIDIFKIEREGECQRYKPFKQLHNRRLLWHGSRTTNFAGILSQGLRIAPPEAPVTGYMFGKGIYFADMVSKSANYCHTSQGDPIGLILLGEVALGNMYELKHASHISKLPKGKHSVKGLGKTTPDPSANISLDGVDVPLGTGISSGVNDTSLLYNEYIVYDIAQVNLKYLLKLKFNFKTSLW

With `O=C(CN1CCC(N2CCCC2)CC1)N1CCc2nc(O)c3ccccc3c2C1`, in assay [1], the IC50 came out at 185 nM. In addition, in assay [2], the EC50 was 850 nM.
Consider `O=C(CN1CCCCC1)N1CCc2c(nc(O)c3ccccc23)C1`, for which the EC50 in assay [2] came to 260 nM.
`O=C(CCN1CCCCC1)N1CCc2[nH]c(=O)c3cc(F)ccc3c2C1`: the 50% inhibitory concentration (IC50) in assay [1] turned out to be 25 nM. This compound showed an EC50 in assay [2] of 30 nM.
The corresponding values for `O=S(=O)(CCN1CCC(N2CCCC2)CC1)N1CCc2c(nc(O)c3ccccc23)C1` are 349 nM and 1780 nM.
On the same counts, the results for `Oc1nc2c(c3ccccc13)CCNC2` are 30 nM and 45 nM.
For `O=C(CN1CCN(C2CCCC2)CC1)N1CCc2c(nc(O)c3ccccc23)C1`, in assay [1], the IC50 worked out at 116 nM. A half-maximal effect in assay [2] (EC50) was put at 690 nM.
On to `O=C(CCN1CCCCC1)N1CCc2c(nc(O)c3ccccc23)C1`, for which the IC50 in assay [1] is 240 nM.
The same measure, in the same setting: the value for `O=c1[nH]c2c(c3ccccc13)CN(S(=O)(=O)CCN1CCC(N3CCCC3)CC1)CC2` was 357 nM; that for `Oc1nc2c(c3ccccc13)CCCC2` was 167 nM; that for `O=C(CCN1CCC(N2CCCC2)CC1)N1CCc2c(nc(O)c3ccccc23)C1` was 243 nM.
In assay [2], `O=C(CN1CCCCC1)N1CCc2nc(O)c3ccccc3c2C1` came in with an EC50 of 60 nM.
On the same count and under the same terms, the result for `O=C(CCN1CCCCC1)N1CCc2nc(O)c3ccccc3c2C1` reads 58 nM.
Regarding `O=C(CCN1CCC(N2CCCC2)CC1)N1CCc2nc(O)c3cc(F)ccc3c2C1`, the IC50 in assay [1] stood at 32 nM. The compound also yielded a half-maximal effective concentration (EC50) in assay [2] of 610 nM.
On the same counts, the results for `Oc1nc2c(c3ccc(F)cc13)CNCC2` are 20 nM and 40 nM.
On the same counts, the results for `O=c1[nH]c2c(c3ccccc13)CCN(S(=O)(=O)CCN1CCCCC1)C2` are 376 nM and 2790 nM.
With `Oc1nc2c(c3ccccc13)CNCC2`, in assay [2], a half-maximal response (EC50) required 40 nM.
Turning to `N[C@@H](CCC(=O)N1CCc2nc(O)c3ccccc3c2C1)C(=O)O`, in assay [1], the IC50 turned out to be 89 nM. For the same compound, a half-maximal effect in assay [2] (EC50) was put at 30000 nM.
The corresponding values for `O=C([C@@H]1CCCN1)N1CCc2c(nc(O)c3ccccc23)C1` are 31 nM and 100 nM.

Values taken from ChEMBL document CHEMBL1136129, “Design and synthesis of poly(ADP-ribose)polymerase-1 (PARP-1) inhibitors. Part 3: In vitro evaluation of 1,3,4,5-tetrahydro-benzo[c][1,6]- and [c][1,7]-naphthyridin-6-ones” (Bioorg Med Chem Lett, 2003).
